Values of other authors in patent US20260345571A1, “DELAMANID-CONTAINING SOLID DISPERSION” (priority 2022, published 2026).

Key:
atypical mycobacteria = settings: PTL 1
[1] = system: Mycobacterium tuberculosis; settings: PTL 1
[2] = melting point about 195 °C (decomposition)

Structure (SMILES): C[C@]1(COc2ccc(N3CCC(Oc4ccc(OC(F)(F)F)cc4)CC3)cc2)Cn2cc([N+](=O)[O-])nc2O1 [Delamanid, (2R)-2-methyl-6-nitro-2-[(4-{4-[4-(trifluoromethoxy)phenoxy]piperidin-1-yl}phenoxy)methyl]-2,3-dihydroimidazo[2,1-b]oxazole]
- Bactericidal action against atypical mycobacteria (atypical mycobacteria): excellent bactericidal action
- Bactericidal action against Mycobacterium tuberculosis [1]: excellent bactericidal action
- Thermal stability [2]: poor thermal stability
